From article PMC2430599, “Solution Structure and Sugar-Binding Mechanism of Mouse Latrophilin-1 RBL: a 7TM Receptor-Attached Lectin-Like Domain” (Structure(London, England:1993), 2008)
Positions count from the first letter of the chain named. Several values for one entry are separate records, joined by “and”; a condition that tells them apart may be missing. Identical values can stand only once.

Tests used:
[1] = biological target: T1, RBL domain of mouse Lat-1 (WT) (Mus musculus, UniProt Q80TR1); test: NMR chemical shift perturbation titration of carbohydrates, wild-type RBL; type: binding; details: for Kd, WT / Kd: NMR titration, 30°C, 20 mM sodium phosphate pH 7.0, error from curve fitting, NBD = no binding detected (up to 100 mM compound)
T1 construct: Analytical ultracentrifugation experiments on RBL (residues 30–134) and larger constructs indicated a monomer in solution; α-factor signal propeptide (secretion leader) (N, cleaved yes); made in house; host or cells: Pichia pastoris strain X-33
T1 sequence (Q80TR1 30-134): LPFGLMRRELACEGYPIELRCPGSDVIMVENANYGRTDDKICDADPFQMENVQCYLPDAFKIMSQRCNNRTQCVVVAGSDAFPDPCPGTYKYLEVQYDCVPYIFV
Source text: (§1) (B) Ligand titrations induced chemical shift perturbations in the NMR spectra as indicated by arrows. (C) The extent of these perturbations was plotted against ligand concentration and fitted to extract equilibrium parameters using the equation Δδ=Δδsat(([P]+[L]+Kd)−([P]+[L]+Kd)^2−4[P][L])/2[P] , where [P] and [L] are protein and ligand concentrations, respectively, Δδ the shift perturbation measured for each titration point and Δδsat the perturbation at saturation. Multiple perturbed resonances can be fitted simultaneously to different Δδsat values for each resonance and a single Kd value. Equilibrium parameters (Ka) measured for different compounds under the same conditions are compared in a logarithmic plot with error bars derived from the fit (D).
We studied the direct interaction of RBL with carbohydrates by monitoring NMR spectral perturbations induced by binding (Figures 1B–1D).
(§2) All experiments were performed at 30°C with home-built spectrometers, with 11.7 T, 14.1 T, 17.6 T, or 22.3 T field strengths. NMR samples consisted of 1–2 mM protein in a 20 mM sodium phosphate buffer (pH 7.0, 2 mM EDTA, 0.1 mM DSS, 0.02% NaN3) in 5% or 100% D2O, unless otherwise noted.

RBL K120R = biological target: T2, RBL K120R (Mus musculus, UniProt Q80TR1, K120R); test: NMR titration, RBL K120R mutant; details: NBD = no binding detected
T2 construct: Analytical ultracentrifugation experiments on RBL (residues 30–134) and larger constructs indicated a monomer in solution; α-factor signal propeptide (secretion leader) (N, cleaved yes); made in house; host or cells: Pichia pastoris strain X-33
T2 sequence (Q80TR1 30-134 K120R): T1 sequence (Q80TR1 30-134) with K91R
Source text: as §1
(§3) We created substitutions in these two residues of RBL and determined carbohydrate affinity by NMR titrations (Table 1).
as §2

RBL K120A = biological target: T3, RBL K120A (Mus musculus, UniProt Q80TR1, K120A); test: NMR titration, RBL K120A mutant; details: NBD = no binding detected
T3 construct: Analytical ultracentrifugation experiments on RBL (residues 30–134) and larger constructs indicated a monomer in solution; α-factor signal propeptide (secretion leader) (N, cleaved yes); made in house; host or cells: Pichia pastoris strain X-33
T3 sequence (Q80TR1 30-134 K120A): T1 sequence (Q80TR1 30-134) with K91A
Source text: as §1, §3, §2

RBL E42A = biological target: T4, RBL E42A (Mus musculus, UniProt Q80TR1, E42A); test: NMR titration, RBL E42A mutant; details: NBD = no binding detected
T4 construct: Analytical ultracentrifugation experiments on RBL (residues 30–134) and larger constructs indicated a monomer in solution; α-factor signal propeptide (secretion leader) (N, cleaved yes); made in house; host or cells: Pichia pastoris strain X-33
T4 sequence (Q80TR1 30-134 E42A): T1 sequence (Q80TR1 30-134) with E13A
Source text: as §1, §3, §2

RBL E42R = biological target: T5, RBL E42R (Mus musculus, UniProt Q80TR1, E42R); test: NMR titration, RBL E42R mutant; details: NBD = no binding detected
T5 construct: Analytical ultracentrifugation experiments on RBL (residues 30–134) and larger constructs indicated a monomer in solution; α-factor signal propeptide (secretion leader) (N, cleaved yes); made in house; host or cells: Pichia pastoris strain X-33
T5 sequence (Q80TR1 30-134 E42R): T1 sequence (Q80TR1 30-134) with E13R
Source text: as §1, §3, §2

SUEL = SUEL (Heliocidaris crassispina, UniProt P22031); test: biochemical; type: binding, sea urchin
[2] = biological target: T6, RBL domain of mouse Lat-1 (Mus musculus, UniProt Q80TR1); test: Printed glycan array chip screen with AlexaFluor 488 labelled RBL (Consortium for Functional Glycomics); type: binding
T6 construct: Analytical ultracentrifugation experiments on RBL (residues 30–134) and larger constructs indicated a monomer in solution; α-factor signal propeptide (secretion leader) (N, cleaved yes); made in house; host or cells: Pichia pastoris strain X-33
T6 sequence (Q80TR1 30-134): T1 sequence (Q80TR1 30-134)
Procedure: RBL extensively dialyzed against PBS was fluorescently labeled with the AlexaFluor 488 protein labeling kit (Invitrogen). After labeling, free dye was removed by gel filtration chromatography, and the labeling efficiency was estimated as 30%. Approximately 0.1 mg of labeled protein was provided to the Consortium for Functional Glycomics (National Institute of General Medical Sciences/National Institutes of Health) for screening in a printed glycan array chip (version 3.0, 320 glycan targets).

Sequence of SUEL (P22031 whole entry, the tested form may be a part): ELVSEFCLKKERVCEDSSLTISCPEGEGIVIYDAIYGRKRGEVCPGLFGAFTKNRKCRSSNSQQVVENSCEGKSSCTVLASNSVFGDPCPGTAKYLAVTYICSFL

In the case of `OC1OC[C@@H](O)[C@@H](O)[C@@H]1O` (stereo partly drawn) [D-arabinose], the “Kd, WT” value [1] is reported as “NBD”.
`C[C@H]1OC(O)[C@H](O)[C@@H](O)[C@H]1O` (stereo partly drawn) [D-fucose] was tested, and the Kd [1] was 61 ± 1.3 mM.
In the case of `OC[C@H]1OC(O)[C@H](O)[C@@H](O)[C@H]1O` (stereo partly drawn) [D-galactose], the “Kd, K120R” value (RBL K120R) is reported as “NBD”, the Kd [1] is reported as 33.6 ± 0.4 mM and the “Kd, K120A” value (RBL K120A) is reported as “NBD”. For the same compound, the “Kd, E42A” value (RBL E42A) was “NBD” and the “Kd, E42R” value (RBL E42R) was “NBD”.
`OC[C@H]1OC(O)[C@H](O)[C@@H](O)[C@@H]1O` (stereo partly drawn) [D-glucose] was tested, and the “Kd, WT” value [1] was “NBD”.
`O=C[C@H](O)[C@@H](O)[C@H](O)[C@H](O)C(=O)O` [D-glucuronic acid] was tested, and the “Kd, WT” value [1] was “NBD”.
In the case of `OC[C@H]1OC(O)[C@@H](O)[C@@H](O)[C@@H]1O` (stereo partly drawn) [D-mannose], the “Kd, WT” value [1] is reported as “NBD”.
`O[C@@H]1[C@@H](O)[C@@H](O)CO[C@H]1O` [L-arabinose] gave a Kd [1] of 75 ± 1.3 mM.
With `C[C@H](O)[C@@H](O)[C@@H](O)[C@H](O)C=O` [L-fucose] the “Kd, WT” value [1] was “NBD ^c”.
With `C[C@@H]1OC(O)[C@H](O)[C@H](O)[C@H]1O` (stereo partly drawn) [L-rhamnose] the “Kd, K120R” value (RBL K120R) was “NBD”, the Kd [1] was 1.8 mM and 1.78 mM and the “Kd, K120A” value (RBL K120A) was “NBD”. For the same compound, the “Kd, E42A” value (RBL E42A) was “NBD”, the “Kd, E42R” value (RBL E42R) was “NBD” and the Kd (SUEL) was 0.1 to 0.2 mM. For the same compound, the “affinity of SUEL relative to Lat-1 RBL (times tighter)” value (SUEL; SUEL Kd vs Lat-1 RBL Kd 1.8 mM, ref Hosono et al., 1999) was 10.
With `OC[C@H]1O[C@H](OCC2O[C@@H](O)[C@H](O)[C@@H](O)[C@@H]2O)[C@H](O)[C@@H](O)[C@H]1O` (stereo partly shown) [Melibiose] the Kd [1] was 33.3 ± 0.5 mM.
In the case of `CC(=O)N[C@@H]1[C@@H](O)[C@@H](O)[C@@H](CO)O[C@@H]1O` [N-acetyl galactosamine], the “Kd, WT” value [1] is reported as “NBD”.
For `CC(=O)N[C@@H]1[C@@H](O)[C@H](O)[C@@H](CO)O[C@H]1O` [N-acetyl glucosamine], the “Kd, WT” value [1] was “NBD”.
For `CC(=O)N[C@H]1[C@H]([C@H](O)[C@H](O)CO)OC(O)(C(=O)O)C[C@@H]1O` (stereo partly shown) [N-acetyl neuraminic acid], the “Kd, WT” value [1] was “NBD”.
`C[C@@H]1O[C@@H](O[C@H]2C[C@@H](O)[C@]3(CO)[C@H]4[C@H](O)C[C@]5(C)[C@@H](C6=CC(=O)OC6)CC[C@]5(O)[C@@H]4CC[C@]3(O)C2)[C@H](O)[C@H](O)[C@H]1O` [Ouabain] showed a Kd [1] of 2.21 ± 0.03 mM.
For “Galα1-3(Fucα1-2)Galβ1-3GlcNAcβ-Sp0 [glycan #95]”, the “binding in NMR titration compared to galactose” value ([1]; NMR titration with glycan as ligand) was “did not show stronger or altered binding compared to galactose”, the “binding on immobilized glycan array” value ([2]; fluorescently labeled RBL, glycan array version 3.0, 320 glycan targets, triplicate) was “any interaction” and the “level of fluorescent signal relative to what is commonly found in this assay” value ([2]; glycan array version 3.0) was “approximately 1/20”.
Heparin was tested, and the “Kd, WT” value [1] was “NBD”.
